Data as given in patent publication US20230312510A1, “COMPOUNDS AND METHODS FOR TREATING NEURODEGENERATIVE DISEASES” (The McLean Hospital Corporation, priority 2020, published 2023).
Blank lines part the entries; values can stand above or below the molecule they belong to.

What was measured:
CD-1 mice = test: Escalating dose maximum tolerated dose study; type: in vivo; conditions: oral; for cage side observation, clinical signs: escalating dose from 5 mg/kg
Experimental: The objective of this study was to evaluate the escalating dose maximum tolerated dose study of compound of Formula (II) and comparative example
in CD-1 mice. Animals were monitored on a daily basis with body weights and clinical signs, and any abnormal observation findings were recorded.

[1] = Pharmacokinetic study after single oral administration; type: in vivo, Rat; conditions: Sprague-Dawley (SD), plasma, 20 mg/kg; for AUC(0-t): rat, Male SD Rats, PO; for concentration at 0.083 h / concentration at 0.25 h / concentration at 0.5 h / concentration at 1 h / concentration at 2 h / concentration at 4 h / concentration at 8 h / concentration at 24 h: male, Rat, oral, read-out: Plasma Conc.
Source text: The objective of this study was to characterize the pharmacokinetics (PK) of compound of Formula (II) in Male SD Rats after single intravenous (IV) and oral (PO) administration. […] Following PO administration with comparative example 2: […]

Nurr1-LBD [2] = biological target: T1, Nurr1-LBD (Homo sapiens, UniProt P43354); test: Radioligand competition binding assay using [3H]-CQ
T1 sequence (P43354 360-595 limits assumed): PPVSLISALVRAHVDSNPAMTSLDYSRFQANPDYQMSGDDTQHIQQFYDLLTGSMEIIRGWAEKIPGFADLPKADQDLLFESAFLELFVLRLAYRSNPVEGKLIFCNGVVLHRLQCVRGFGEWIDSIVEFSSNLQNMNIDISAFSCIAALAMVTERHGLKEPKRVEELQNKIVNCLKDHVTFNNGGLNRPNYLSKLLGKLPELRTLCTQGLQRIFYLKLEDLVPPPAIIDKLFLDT

full-length Nurr1 = biological target: T2, full-length Nurr1 (Homo sapiens, UniProt P43354); test: Luciferase activity assay (p4xNL3-Luc reporter) with full-length Nurr1 in SK-N-BE(2)C cells; type: cell-based; conditions: SK-N-BE(2)C cells; read-out: EC50, transcriptional activity of full-length Nurr1
T2 construct: expressed in transfected cells; host or cells: SK-N-BE(2)C human neuroblastoma cells
T2 sequence (P43354 whole entry): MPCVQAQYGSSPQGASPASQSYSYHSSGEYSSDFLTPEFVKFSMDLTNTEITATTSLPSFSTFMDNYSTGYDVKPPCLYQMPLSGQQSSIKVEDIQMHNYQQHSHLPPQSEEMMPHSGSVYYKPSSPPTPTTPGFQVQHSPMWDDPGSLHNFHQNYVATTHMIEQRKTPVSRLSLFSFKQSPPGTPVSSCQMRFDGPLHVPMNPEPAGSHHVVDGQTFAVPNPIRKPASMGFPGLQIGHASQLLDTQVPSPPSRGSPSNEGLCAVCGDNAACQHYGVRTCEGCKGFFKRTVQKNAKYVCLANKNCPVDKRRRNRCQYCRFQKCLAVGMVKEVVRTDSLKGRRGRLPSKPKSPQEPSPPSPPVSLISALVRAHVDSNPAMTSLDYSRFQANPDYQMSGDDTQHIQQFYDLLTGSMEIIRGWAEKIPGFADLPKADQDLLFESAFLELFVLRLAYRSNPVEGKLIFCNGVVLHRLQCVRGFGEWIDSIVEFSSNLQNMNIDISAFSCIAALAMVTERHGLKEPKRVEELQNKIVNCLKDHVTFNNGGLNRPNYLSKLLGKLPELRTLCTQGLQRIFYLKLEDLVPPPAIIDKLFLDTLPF

[3] = system: Nurr1-LBD and full-length Nurr1; test: Luciferase activity assay (Nurr1 transactivation) in MN9D cells; type: cell-based, murine
[4] = system: Nurr1-LBD and full-length Nurr1; test: Luciferase activity assay (Nurr1 transactivation) in N27-A cells; type: cell-based, murine
[5] = system: mouse embryonic ventral mesencephalic (mVM) primary neurons; test: Dopaminergic gene expression in mVM primary neurons with or without 6-OHDA; type: cell-based
Experimental: FIGS. 8A-8D show dopaminergic (DAergic) gene expressions in the absence or presence of 6-OHDA (20 μM) in mouse embryonic ventral mesencephalic (mVM) primary neurons derived from embryonic day 12.5 (E12.5).

BV2 cells = test: LPS-induced TNFα mRNA expression in BV2 cells (real-time PCR); type: cell-based, mouse; conditions: LPS 1 μg/ml, compound 1 μM
Source text: (§1) Besides the role as an activator of DAergic genes, Nurr1 is known as a repressor of inflammatory genes in astrocytes and microglia (See Saijo et al., Cell 2009, 137, 47-59).

[6] = system: mouse bone marrow-derived primary macrophages (mBMMs); test: LPS- or poly(I:C)-induced pro-inflammatory gene expression in mBMMs; type: cell-based; conditions: CQ 10 μM, SPV-94 1 μM
Source text: as §1

HeLa cells = test: Starvation-induced autophagy in HeLa cells (Western blot of LC3B and p62); type: cell-based; conditions: EBSS 0-4 hrs, BafA1 10 nM, CQ 20 μM, SPV-94 1 μM
Experimental: To limit basal autophagy, cells were incubated in fresh growth medium for 1 hr before starvation. Samples were analyzed by Western blot using autophagic flux markers LC3B and p62 (A) and its expression levels were quantified (10B and 10C).

N27-A cells [7] = test: Starvation-induced autophagy and Nurr1 expression in N27-A cells with or without MPP+; type: cell-based; conditions: CQ 20 μM, SPV-94 1 μM
Experimental: LC3B, p62 and Nurr1 expression levels determined by Western blot (D) were quantified.
Next, autophagy regulation was assessed in a dopaminergic cell line N27-A in the absence or presence of MPP^+ (1 mM). […] Furthermore, it was observed that MPP disrupted autophagy showing accumulated LC3B-II and remained p62 at the late-stage, which corresponds to the previous studies (See Lim et al., Autophagy 2011, 7, 51-60; Hung et al., PLoS ONE 2014, 9, e91074; Park et al., J Biol Chem 2016, 291, 3531-3540).
Referring to FIGS. 10D-10G, N27-A cells were treated with vehicle or MPP+ (1 mM) for 24 hrs and then changed with fresh growth medium with or without MPP+ 1 hr before starvation. […] To induce autophagy, N27-A cells were incubated in EBSS for 0-4 hrs, in the absence or presence of MPP+. Samples were analyzed by Western blot using autophagic flux markers LC3B and p62 (D) and its expression levels were quantified (10E and 10F). […] (10G) Nurr1 expression level changes were also analyzed and quantified.

[8] = system: MPTP-induced PD model mice; test: Sub-chronic MPTP-induced mice model of PD; conditions: for body weight recovery / cylinder test, rearing numbers, sub-chronic treatment / pole test, time to traverse, sub-chronic treatment / rotarod latency to fall, sub-chronic treatment: L-DOPA 50, CQ 40, SPV-94 5 mg/kg/day; for TH+ DAergic neurons (counting and densitometry): STR, SNpc and OB; for dyskinesia in the abnormal involuntary movements (AIMs) test: chronic administration; for olfactory discrimination test (olfaction), chronic treatment: day 14; for rotarod latency to fall, chronic treatment: day 15
Experimental: Sub-chronic MPTP regimen (30 mg/kg/day, 5 days) was introduced.

N27-A cells [9] = test: Protection against MPP+-induced toxicity in N27-A cells (MTT, LDH); conditions: 1 mM MPP+
Nurr1-LBD [10] = biological target: T1, Nurr1-LBD; test: Luciferase activity assay (p4xNL3-Luc reporter) with Nurr1-LBD in SK-N-BE(2)C cells; type: cell-based; set-up: expressed in transfected cells; host or cells: SK-N-BE(2)C human neuroblastoma cells; conditions: SK-N-BE(2)C cells; read-out: EC50, transcriptional activity of Nurr1-LBD
MN9D cells = test: Protection against MPP+-induced toxicity in MN9D cells (MTT reduction, LDH release)
Experimental: Cell viability and cytotoxicity were measured by MTT (3-(4,5-dimethylthiazol-2-yl)-2,5-diphenyltetrazolium bromide) reduction assay.
Cell viability and cytotoxicity were measured by lactate dehydrogenase (LDH) release assay.

SMILES: Clc1ccc2c(NCCN3CCN(c4ccnc(-n5ccnc5)n4)CC3)ccnc2c1 [Formula (II)]
cage side observation, clinical signs (CD-1 mice; CD-1 mice): no abnormalities were observed
AUC(0-t) [1]: 7340 ng·h/mL
concentration at 0.083 h [1]: 10.7 ng/mL
concentration at 0.25 h [1]: 118 ng/mL
concentration at 0.5 h [1]: 559 ng/mL
concentration at 1 h [1]: 1180 ng/mL
concentration at 2 h [1]: 1020 ng/mL
concentration at 4 h [1]: 953 ng/mL
concentration at 8 h [1]: 294 ng/mL
concentration at 24 h [1]: 16.8 ng/mL

SMILES: Cc1cc(NCCCNc2ccnc3cc(Cl)ccc23)nc(N2CCCCC2)n1 [comparative example]
tolerability at 40 mg/kg (CD-1 mice; CD-1 male mice, 40 mg/kg): cannot be tolerated well
clinical signs and outcome at 40 mg/kg (CD-1 mice; CD-1 mice, 40 mg/kg): prone, slightly low temperature and twitched to death on the fourth dosing day
cage side observation, clinical signs (CD-1 mice; CD-1 mice): weight loss, roach back, rough coat, low temperature, low activity, tremble or/and dying

SMILES: CCN(CC)CCCC(C)Nc1ccnc2cc(Cl)ccc12 (centres unmarked) [CQ, chloroquine]
Ki (Nurr1-LBD [2]): 0.0284 µM
IC50 (Nurr1-LBD [2]; 1,000 nM [3H]-CQ, 0.2 μM Nurr1-LBD, estimated, read-out: half maximal inhibitory concentration (IC50), competition with [3H]-CQ for binding to Nurr1-LBD): 1 µM
EC50 (full-length Nurr1): 50 µM
transcriptional activities of Nurr1-LBD and full-length Nurr1 [3]: enhanced transcriptional activities
transcriptional activities of Nurr1-LBD and full-length Nurr1 [4]: enhanced transcriptional activities
DAergic gene expressions downregulated by 6-OHDA toxicity ([5]; 6-OHDA 20 μM, CQ 20 μM, SPV-94 0.5 μM): significant recovery of downregulated DAergic gene expressions
mRNA expression levels of DAergic genes (TH, DAT, AADC, VMAT2, c-Ret, Pitx3) ([5]; CQ 20 μM, SPV-94 0.5 μM, vs vehicle): significantly upregulated mRNA expression levels of DAergic genes
effects on DAergic gene expression in Nurr1 knockdown condition ([5]; Nurr1 KD): disappeared
suppression of TNFα expression compared to LPS only (BV2 cells): 35.53%
LPS- or poly(I:C)-induced pro-inflammatory gene expressions (TNFα, iNOS, IL-1β, IL-6) [6]: significantly suppressed LPS- or poly(I:C)-induced pro-inflammatory gene expressions
autophagy process (LC3B, p62) (HeLa cells): induced autophagy initiation but inhibited autophagy process termination
basal Nurr1 expression level compared to VEH (N27-A cells [7]): significantly higher
body weight recovery [8]: regained body weight after day 8
cylinder test, rearing numbers, sub-chronic treatment [8]: recovered rearing numbers in the cylinder test
pole test, time to traverse, sub-chronic treatment [8]: reduced time to traverse on a pole
rotarod latency to fall, sub-chronic treatment [8]: significantly improved motor deficits on the rotarod latency to fall
TH+ DAergic neurons (counting and densitometry) [8]: significantly restored DAergic neurons
dyskinesia in the abnormal involuntary movements (AIMs) test [8]: did not trigger dyskinesia
olfactory discrimination test (olfaction), chronic treatment [8]: significantly recovered olfaction
rotarod latency to fall, chronic treatment [8]: improved latency to fall on the rotarod on day 15
cytotoxicity, LDH assay (N27-A cells [9]): reduced cytotoxicity in LDH assay
EC50 (Nurr1-LBD [10]): 50 µM
cytotoxicity, LDH release assay (MN9D cells; 500 μM MPP+): reduced cytotoxicity
protective effect against MPP+-induced toxicity under Nurr1 overexpression (OE) (MN9D cells; CQ 100 μM, SPV-94 1 μM, vs Mock): potentiated protective effects

AUC(0-t) [1]: 250 ng·h/mL
concentration at 0.083 h [1]: 5.15 ng/mL
concentration at 0.25 h [1]: 6.68 ng/mL
concentration at 0.5 h [1]: 9.91 ng/mL
concentration at 1 h [1]: 13.9 ng/mL
concentration at 2 h [1]: 14.9 ng/mL
concentration at 4 h [1]: 12 ng/mL
concentration at 8 h [1]: 16.5 ng/mL
concentration at 24 h [1]: 5.92 ng/mL
SMILES: Cc1cc(NCCCNc2ccnc3cc(Cl)ccc23)nc(N2CCN(C)CC2)n1 [comp. ex. 2]

SMILES: CO/C1=C\C(C)=C\[C@@H](C)[C@@H](O)[C@@H](C)C/C(C)=C/C=C/[C@H](OC)[C@@H]([C@@H](C)[C@@H](O)[C@H](C)[C@@]2(O)C[C@@H](O)[C@H](C)[C@@H](C(C)C)O2)OC1=O [BafA1, bafilomycin A1]
autophagy process (LC3B, p62) (HeLa cells): induced autophagy initiation but inhibited autophagy process termination

dyskinesia in the abnormal involuntary movements (AIMs) test [8]: developed dyskinesia
SMILES: N[C@@H](Cc1ccc(O)c(O)c1)C(=O)O [L-DOPA, L-3,4-dihydroxyphenylalanine]
olfactory discrimination test (olfaction), sub-acute stage [8]: failed to restore olfaction
body weight recovery [8]: regained body weight after day 8
cylinder test, rearing numbers, sub-chronic treatment [8]: recovered rearing numbers in the cylinder test
pole test, time to traverse, sub-chronic treatment [8]: reduced time to traverse on a pole
rotarod latency to fall, sub-chronic treatment [8]: significantly improved motor deficits on the rotarod latency to fall
Nurr1-immunoreactive cells ([8]; SNpc): failed to protect Nurr1 expressions
Iba-1+ microglia numbers ([8]; STR and SNpc): failed to suppress microglial activation
TH+ DAergic neurons (counting and densitometry) [8]: did not show protective effect
olfactory discrimination test (olfaction), chronic treatment [8]: could not recover olfaction even with chronic treatment
rotarod latency to fall, chronic treatment [8]: improved latency to fall on the rotarod on day 15
velocity during olfactory discrimination ([8]; sub-acute stage): hyperactivity indicated as increased velocity

AUC(0-t) [1]: 271 ng·h/mL
concentration at 0.083 h [1]: 7.71 ng/mL
concentration at 0.25 h [1]: 16 ng/mL
concentration at 0.5 h [1]: 16.6 ng/mL
concentration at 1 h [1]: 19.4 ng/mL
concentration at 2 h [1]: 23.3 ng/mL
concentration at 4 h [1]: 19.5 ng/mL
concentration at 8 h [1]: 14.5 ng/mL
concentration at 24 h [1]: 3.53 ng/mL
SMILES: Cc1cc(NCCCNc2ccnc3cc(Cl)ccc23)nc(N2CCCC2)n1 [comp. ex. 3]
